IC50 data for 31 compounds are collected here from patent US8013156B2 (Exelixis, Inc., priority 2003, dated 2011).

This assay deals with Tie-2 (Homo sapiens, UniProt Q02763). Put plainly: Tie-2 tyrosine kinase activity assay (luciferase/luciferin ATP consumption with pEY substrate, or 33P-ATP incorporation). The class given is biochemical. The conditions noted are these: human enzyme Tie-2. An outline of the steps: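 Values are IC50 categories (A <50 nM to D ≥10,000 nM), with Ki obtainable by fitting rates to a tight-binding model. Assay formats: 33P-ATP phosphate transfer to adsorbed generic substrate counted by scintillation, or luciferase-detected ATP depletion using pEY.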
Tie-2, sequence (Q02763 23-1124): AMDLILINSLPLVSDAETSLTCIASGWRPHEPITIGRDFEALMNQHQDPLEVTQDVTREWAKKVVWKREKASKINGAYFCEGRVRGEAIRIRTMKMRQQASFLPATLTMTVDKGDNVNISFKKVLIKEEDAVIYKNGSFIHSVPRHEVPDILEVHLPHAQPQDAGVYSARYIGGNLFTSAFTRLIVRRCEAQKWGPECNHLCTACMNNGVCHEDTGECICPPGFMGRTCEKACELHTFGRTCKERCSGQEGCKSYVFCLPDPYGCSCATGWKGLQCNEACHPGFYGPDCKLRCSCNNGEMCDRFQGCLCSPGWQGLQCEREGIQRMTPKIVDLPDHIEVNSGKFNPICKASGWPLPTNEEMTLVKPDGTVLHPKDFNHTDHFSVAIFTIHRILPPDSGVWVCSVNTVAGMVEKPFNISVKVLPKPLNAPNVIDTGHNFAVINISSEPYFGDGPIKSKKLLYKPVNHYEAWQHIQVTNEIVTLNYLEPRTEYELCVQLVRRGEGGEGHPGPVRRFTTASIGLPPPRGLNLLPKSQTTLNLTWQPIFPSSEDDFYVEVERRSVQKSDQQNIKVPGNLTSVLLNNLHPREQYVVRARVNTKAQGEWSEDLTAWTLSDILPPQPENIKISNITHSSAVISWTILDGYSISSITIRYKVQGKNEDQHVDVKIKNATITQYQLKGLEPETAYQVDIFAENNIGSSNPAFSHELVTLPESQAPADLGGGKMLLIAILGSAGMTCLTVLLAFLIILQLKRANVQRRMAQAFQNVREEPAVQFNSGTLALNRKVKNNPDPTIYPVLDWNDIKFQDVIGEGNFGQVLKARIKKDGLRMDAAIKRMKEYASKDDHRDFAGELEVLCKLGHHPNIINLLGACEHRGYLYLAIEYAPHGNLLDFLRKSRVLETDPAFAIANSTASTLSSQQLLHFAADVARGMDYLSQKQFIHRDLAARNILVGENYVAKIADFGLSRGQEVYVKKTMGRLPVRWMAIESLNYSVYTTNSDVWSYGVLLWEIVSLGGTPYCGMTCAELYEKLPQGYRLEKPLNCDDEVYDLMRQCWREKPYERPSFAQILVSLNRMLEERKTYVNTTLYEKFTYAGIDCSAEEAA

pIC50: −log10 of the molar value.

For the compound `CC(C)c1cccc(NC(=O)N2CCN(c3nccnc3OCc3ccnc(N)n3)CC2)c1` [Example 251, 4-(3-{[(2-aminopyrimidin-4-yl)methyl]oxy}pyrazin-2-yl)-N-[3-(1-methylethyl)phenyl]piperazine-1-carboxamide], the pIC50 is greater than 7.30.

Regarding `CCc1cc(NC(=O)N2CCN(c3nsnc3OCc3ccnc(N)n3)CC2)ccc1F` [Example 252, 4-(4-{[(2-aminopyrimidin-4-yl)methyl]oxy}-1,2,5-thiadiazol-3-yl)-N-(3-ethyl-4-fluorophenyl)piperazine-1-carboxamide], the pIC50 is 6.00 to 7.30.

`Nc1nccc(COc2nsnc2N2CCN(C(=O)Nc3ccc(F)c(Cl)c3)CC2)n1` [Example 253, 4-(4-{[(2-aminopyrimidin-4-yl)methyl]oxy}-1,2,5-thiadiazol-3-yl)-N-(3-chloro-4-fluorophenyl)piperazine-1-carboxamide] had a pIC50 of 5.00 to 6.00.

On to `COc1ccc(OC)c(NC(=O)N2CCN(c3nsnc3OCc3ccnc(N)n3)CC2)c1` [Example 254, 4-(4-{[(2-aminopyrimidin-4-yl)methyl]oxy}-1,2,5-thiadiazol-3-yl)-N-[2,5-bis(methyloxy)phenyl]piperazine-1-carboxamide], for which the pIC50 was 5.00 to 6.00.

Turning to `Nc1nccc(COc2ccccc2N2CCN(C(=O)Nc3cc(C(F)(F)F)cc(C(F)(F)F)c3)CC2)n1` [Example 255, 4-(2-{[(2-aminopyrimidin-4-yl)methyl]oxy}phenyl)-N-[3,5-bis(trifluoromethyl)phenyl]piperazine-1-carboxamide], the pIC50 is greater than 7.30.

`CCc1cccc(NC(=O)N2CCN(c3ccccc3OCc3ccnc(N)n3)CC2)c1` [Example 256, 4-(2-{[(2-aminopyrimidin-4-yl)methyl]oxy}phenyl)-N-(3-ethylphenyl)piperazine-1-carboxamide] gave a pIC50 greater than 7.30.

`Nc1nccc(COc2nsnc2N2CCN(C(=O)Nc3cc(Cl)ccc3F)CC2)n1` [Example 257, 4-(4-{[(2-aminopyrimidin-4-yl)methyl]oxy}-1,2,5-thiadiazol-3-yl)-N-(5-chloro-2-fluorophenyl)piperazine-1-carboxamide] had a pIC50 of 5.00 to 6.00.

Compound `Nc1nccc(COc2nsnc2N2CCN(C(=O)Nc3cccc(OC(F)(F)F)c3)CC2)n1` [Example 258, 4-(4-{[(2-aminopyrimidin-4-yl)methyl]oxy}-1,2,5-thiadiazol-3-yl)-N-{3-[(trifluoromethyl)oxy]phenyl}piperazine-1-carboxamide] gave a pIC50 greater than 7.30.

`COc1cccc(NC(=O)N2CCN(c3nsnc3OCc3ccnc(N)n3)CC2)c1` [Example 259, 4-(4-{[(2-aminopyrimidin-4-yl)methyl]oxy}-1,2,5-thiadiazol-3-yl)-N-[3-(methyloxy)phenyl]piperazine-1-carboxamide] showed a pIC50 of 6.00 to 7.30.

As to `CCc1cc(NC(=O)N2CCN(c3nsnc3OCc3ccnc(N)n3)CC2)cc(C(F)(F)F)c1` [Example 260, 4-(4-{[(2-aminopyrimidin-4-yl)methyl]oxy}-1,2,5-thiadiazol-3-yl)-N-[3-ethyl-5-(trifluoromethyl)phenyl]piperazine-1-carboxamide], the pIC50 was greater than 7.30.

As to `CC(C)c1cccc(NC(=O)N2CCN(c3nsnc3OCc3ccnc(N)n3)CC2)c1` [Example 261, 4-(4-{[(2-aminopyrimidin-4-yl)methyl]oxy}-1,2,5-thiadiazol-3-yl)-N-[3-(1-methylethyl)phenyl]piperazine-1-carboxamide], the pIC50 was greater than 7.30.

`Nc1nccc(COc2nsnc2N2CCN(C(=O)Nc3cc(C(F)(F)F)ccc3Cl)CC2)n1` [Example 262, 4-(4-{[(2-aminopyrimidin-4-yl)methyl]oxy}-1,2,5-thiadiazol-3-yl)-N-[2-chloro-5-(trifluoromethyl)phenyl]piperazine-1-carboxamide]: the pIC50 was 6.00 to 7.30.

As to `Nc1nccc(COc2nsnc2N2CCN(C(=O)Nc3cccc(F)c3)CC2)n1` [Example 263, 4-(4-{[(2-aminopyrimidin-4-yl)methyl]oxy}-1,2,5-thiadiazol-3-yl)-N-(3-fluorophenyl)piperazine-1-carboxamide], the pIC50 is 5.00 to 6.00.

Compound `CCOc1ccccc1NC(=O)N1CCN(c2nsnc2OCc2ccnc(N)n2)CC1` [Example 264, 4-(4-{[(2-aminopyrimidin-4-yl)methyl]oxy}-1,2,5-thiadiazol-3-yl)-N-[2-(ethyloxy)phenyl]piperazine-1-carboxamide] showed a pIC50 of no more than 5.00.

As to `Nc1nccc(COc2nsnc2N2CCN(C(=O)Nc3ccc(F)c(F)c3)CC2)n1` [Example 265, 4-(4-{[(2-aminopyrimidin-4-yl)methyl]oxy}-1,2,5-thiadiazol-3-yl)-N-(3,4-difluorophenyl)piperazine-1-carboxamide], the pIC50 is no more than 5.00.

Compound `CSc1cccc(NC(=O)N2CCN(c3nsnc3OCc3ccnc(N)n3)CC2)c1` [Example 266, 4-(4-{[(2-aminopyrimidin-4-yl)methyl]oxy}-1,2,5-thiadiazol-3-yl)-N-[3-(methylthio)phenyl]piperazine-1-carboxamide] gave a pIC50 of 6.00 to 7.30.

Compound `CC(=O)c1cccc(NC(=O)N2CCN(c3nsnc3OCc3ccnc(N)n3)CC2)c1` [Example 267, N-(3-acetylphenyl)-4-(4-{[(2-aminopyrimidin-4-yl)methyl]oxy}-1,2,5-thiadiazol-3-yl)piperazine-1-carboxamide] gave a pIC50 of 5.00 to 6.00.

In the case of `Nc1nccc(COc2ccccc2N2CCN(C(=O)Nc3cc(C(F)(F)F)ccc3F)CC2)n1` [Example 268, 4-(2-{[(2-aminopyrimidin-4-yl)methyl]oxy}phenyl)-N-[2-fluoro-5-(trifluoromethyl)phenyl]piperazine-1-carboxamide], the pIC50 was greater than 7.30.

The compound `Nc1nccc(COc2ccccc2N2CCN(C(=O)Nc3cccc(F)c3)CC2)n1` [Example 269, 4-(2-{[(2-aminopyrimidin-4-yl)methyl]oxy}phenyl)-N-(3-fluorophenyl)piperazine-1-carboxamide] gave a pIC50 of 5.00 to 6.00.

As for `Nc1nccc(COc2ccccc2N2CCN(C(=O)Nc3ccccc3)CC2)n1` [Example 270, 4-(2-{[(2-aminopyrimidin-4-yl)methyl]oxy}phenyl)-N-phenylpiperazine-1-carboxamide], the pIC50 was 5.00 to 6.00.

The compound `Nc1nccc(COc2ccccc2N2CCN(C(=O)Nc3cc(Cl)cc(Cl)c3)CC2)n1` [Example 271, 4-(2-{[(2-aminopyrimidin-4-yl)methyl]oxy}phenyl)-N-(3,5-dichlorophenyl)piperazine-1-carboxamide] gave a pIC50 greater than 7.30.

For the compound `Nc1nccc(COc2ccccc2N2CCN(C(=O)Nc3cc(F)cc(C(F)(F)F)c3)CC2)n1` [Example 272, 4-(2-{[(2-aminopyrimidin-4-yl)methyl]oxy}phenyl)-N-[3-fluoro-5-(trifluoromethyl)phenyl]piperazine-1-carboxamide], the pIC50 is greater than 7.30.

Compound `COc1cc2nccc(COc3nsnc3N3CCN(C(=O)Nc4cc(C(F)(F)F)cc(C(F)(F)F)c4)CC3)c2cc1OC` [Example 273, 4-[4-({[6,7-bis(methyloxy)quinolin-4-yl]methyl}oxy)-1,2,5-thiadiazol-3-yl]-N-[3,5-bis(trifluoromethyl)phenyl]piperazine-1-carboxamide] showed a pIC50 greater than 7.30.

`Nc1nccc(COc2nsnc2N2CCN(C(=O)Cc3cc(C(F)(F)F)cc(C(F)(F)F)c3)CC2)n1` [Example 274, 4-({[4-(4-{[3,5-bis(trifluoromethyl)phenyl]acetyl}piperazin-1-yl)-1,2,5-thiadiazol-3-yl]oxy}methyl)pyrimidin-2-amine] gave a pIC50 of 6.00 to 7.30.

As to `NC(=O)c1cnc(OCc2ccnc(N)n2)c(N2CCN(C(=O)Nc3cc(C(F)(F)F)cc(C(F)(F)F)c3)CC2)n1` [Example 275, 5-{[(2-aminopyrimidin-4-yl)methyl]oxy}-6-[4-({[3,5-bis(trifluoromethyl)phenyl]amino}carbonyl)piperazin-1-yl]pyrazine-2-carboxamide], the negative-log IC50 (pIC50) was greater than 7.30.

Compound `COc1cc2nccc(Oc3nsnc3N3CCN(C(=O)Nc4cc(C(F)(F)F)cc(C(F)(F)F)c4)CC3)c2cc1OC` [Example 276, 4-(4-{[6,7-bis(methyloxy)quinolin-4-yl]oxy}-1,2,5-thiadiazol-3-yl)-N-[3,5-bis(trifluoromethyl)phenyl]piperazine-1-carboxamide] had a pIC50 greater than 7.30.

Compound `CCc1cc(NC(=O)N2CCN(c3ccccc3OCc3ccnc(N)n3)CC2)cc(C(F)(F)F)c1` [Example 277, 4-(2-{[(2-aminopyrimidin-4-yl)methyl]oxy}phenyl)-N-[3-ethyl-5-(trifluoromethyl)phenyl]piperazine-1-carboxamide] had a pIC50 greater than 7.30.

As to `CCc1ccc(F)c(NC(=O)N2CCN(c3ccccc3OCc3ccnc(N)n3)CC2)c1` [Example 278, 4-(2-{[(2-aminopyrimidin-4-yl)methyl]oxy}phenyl)-N-(5-ethyl-2-fluorophenyl)piperazine-1-carboxamide], the pIC50 is greater than 7.30.

`CCc1cc(CC)cc(NC(=O)N2CCN(c3ccccc3OCc3ccnc(N)n3)CC2)c1` [Example 279, 4-(2-{[(2-aminopyrimidin-4-yl)methyl]oxy}phenyl)-N-(3,5-diethylphenyl)piperazine-1-carboxamide] had a pIC50 greater than 7.30.

`Nc1nccc(COc2nsnc2N2CCN(C(=O)Cc3ccc4ccccc4c3)CC2)n1` [Example 280, 4-[({4-[4-(naphthalen-2-ylacetyl)piperazin-1-yl]-1,2,5-thiadiazol-3-yl}oxy)methyl]pyrimidin-2-amine]: the pIC50 is no more than 5.00.

`CCc1cc(Cl)cc(NC(=O)N2CCN(c3ccccc3OCc3ccnc(N)n3)CC2)c1` [Example 281, 4-(2-{[(2-aminopyrimidin-4-yl)methyl]oxy}phenyl)-N-(3-chloro-5-ethylphenyl)piperazine-1-carboxamide] gave a pIC50 greater than 7.30.

As a reminder, the pIC50 is the negative decadic logarithm of the IC50, by convention in mol/L.
